Measured values published in patent US12318503B2, “Functional amyloid hydrogels and applications thereof” (Indian Institute of Technology Bombay, priority 2019, dated 2025).
Where a SMILES comes first, the peptide text is derived from it. The star is where a group is joined. Fmoc = O=C(OCC1c2ccccc2-c2ccccc21)*

Experiments:
SH-SY5Y cells = assay: Differentiation of cells on RA encapsulated hydrogels; type: cell-based; settings: RA released from RA encapsulated hydrogels
Experimental: MDA-MB-231, breast cancer cell line was used for determining the efficacy of DOX release. To do so, MDA-MB-231 cells were grown on the DOX encapsulated hydrogels at a density of 2×10000 and cultured in complete DMEM media for 24 hrs. After 24 hrs, the cell morphology was imaged and the viability was then quantified using 3-(4,5-dimethylthiazol-2-yl)-2,5-diphenyl tetrazolium bromide (MTT) assay. FIG. 22A phase contrast images of MDA-MB-231 cells treated with DOX encapsulated hydrogels. […] For FACS analysis, MDAMB-231 cells were seeded on the hydrogel in the density 50,000 cells/well and allowed to grow for 24 hrs. Following the incubation, the cells were trypsinized and harvested in an eppendorf. The cell pellet was obtained by centrifugation and was resuspended in binding buffer. The percentage of apoptotic cells were measured by Annexin-PI staining method. 2 μl each of Annexin and PI was added to the resuspended cells and incubated for 5 mins before acquiring the results using FACS. […] After 48 hrs, the morphology of these cells was analyzed by phase contrast images (FIG. 23A) and the cell shape was quantified by circularity using Image J software (FIG. 23C).
The SH-SY5Y cells grown on hydrogel were immunostained with β-III tubulin (β-IIIT), a neuron specific marker to determine the efficacy of the released RA (FIG. 23B). […] The gene expression was analyzed by Real-time PCR technique.

MCF7 spheroids [1] = assay: MTT cytotoxicity of chemotherapeutic drugs on spheroids versus 2D culture; type: cell-based; settings: 0-14 μM, 24 h
Experimental: Cytotoxicity assays by MIT: MCF7 spheroids were cultured for five days in DMEM (Dulbecco's modified Eagle's medium) with 10% FBS, in a 5% CO2 incubator at 37° C. followed by treatment with different chemotherapeutics drugs (0-14 μM) for 24 h. For control, media containing buffer. After 24 h of incubation, 10 μl of MTT solution (5 mg/ml prepared in PBS) was added to each well and incubated for 4 h. Subsequently, 100 μl of SDS-DMF solution (50% DMF and 20% SDS, pH 4.75) were added and kept for overnight incubation. The absorption values at 560 nm and 690 nm (background absorbance) were determined using a SpectraMax M2e microplate reader (Molecular Devices, USA). The cell viability was plotted as percentage cell viability by considering 100% viability for the buffer control (FIG. 18 A).
Dense spheroids tended to show relative resistance to all these five chemotherapeutic drugs in the 3D-culture as compared to this resistance in 2D. […] These findings confirm that the formation of dense spheroids in 3D-culture plays a role in determining the sensitivity of the cell lines to these chemotherapeutic drugs. […] 3D, geometrical difference can have far-reaching impacts in terms of understanding physiological response.

MDA-MB-231 cells = assay: Efficacy of DOX released from hydrogels (MTT, Annexin-PI FACS); type: cell-based
Experimental: MDA-MB-231, breast cancer cell line was used for determining the efficacy of DOX release. To do so, MDA-MB-231 cells were grown on the DOX encapsulated hydrogels at a density of 2×10000 and cultured in complete DMEM media for 24 hrs. After 24 hrs, the cell morphology was imaged and the viability was then quantified using 3-(4,5-dimethylthiazol-2-yl)-2,5-diphenyl tetrazolium bromide (MTT) assay. FIG. 22A phase contrast images of MDA-MB-231 cells treated with DOX encapsulated hydrogels. […] For FACS analysis, MDAMB-231 cells were seeded on the hydrogel in the density 50,000 cells/well and allowed to grow for 24 hrs. Following the incubation, the cells were trypsinized and harvested in an eppendorf. The cell pellet was obtained by centrifugation and was resuspended in binding buffer. The percentage of apoptotic cells were measured by Annexin-PI staining method. 2 μl each of Annexin and PI was added to the resuspended cells and incubated for 5 mins before acquiring the results using FACS. […] To determine the efficacy of RA released from the hydrogel, SH-SY5Y neuroblastoma cells were seeded on hydrogel encapsulated with and without RA at a density of 1×10^4 and cultured in complete DMEM media. […] After 48 hrs, the morphology of these cells was analyzed by phase contrast images (FIG. 23A) and the cell shape was quantified by circularity using Image J software (FIG. 23C).

[2] = tested on: STZ-induced diabetic rat model; assay: Insulin delivery from hydrogels in diabetic rats
Experimental: The functional amyloid hydrogel encapsulated with insulin (5 mg/ml) was administered subcutaneously to the diabetic rat model. Blood samples were collected from the tail veins of rats prior to drug administration and at different time intervals after dosing. Diabetes model rats were fasted for 12 h prior to and remained fasted during the experiment, but were allowed water ad libitum. The blood glucose level was checked biochemically at regular interval. The insulin released from the hydrogel in vivo was also monitored. To do that, blood samples were centrifuged (10,000 rpm, 4° C. for 15 min) and subsequently quantified using an appropriate insulin ELISA kit and during various time intervals.

[3] = MTT cytotoxicity assay of cells cultured on the hydrogels; type: cell-based; settings: human, hydrogel 5 mg/ml peptide, 24 hours culture, read-out: cell viability
Experimental: To determine whether the functional amyloid hydrogel is non-toxic in nature, MTT (3-[4,5-dimethylthiazol-2-yl]-2,5 diphenyl tetrazolium bromide) assay was performed. The amyloid hydrogels were casted at a concentration of 5 mg/ml for each peptide and neuroblastoma, SH-SY5Y cells at a density of 10^4 were seeded and cultured on the hydrogels for 24 hours. The MTT reagent (0.5 mg/ml final concentration) was added to the cells after 24 hrs of culture and the cells were further incubated for 4 h. Finally, 100 μl of 50% N, N-dimethylformamide/20% sodium dodecyl sulfate solution was added, and the mixture was incubated overnight. The absorption was then measured at 560 nm with an automatic microtiter plate reader (Thermo Fisher Scientific, Waltham, MA, USA). FIG. 9 depicts the percentage of cell viability.

MCF7 spheroids [4] = assay: Fluorescence live/dead study of drug effect on 2D versus 3D; type: cell-based; settings: 24 h
Experimental: Fluorescence study was also performed to observe the effect of drug on 2D versus 3D. Here, after maturation of spheroids i.e., 5 days of culture on gel 4, different dose of paclitaxel (2-10 μM) was added for 24 h. To assess the effect of drug, cell viability was observed by staining through calcein AM and ethidium homodimer-1. Images were captured after incubation with dyes for 1 h. […] On the other hand, at the concentration of 4 μM, 70% of the cells for 2D are dead for the drug paclitaxel (FIG. 18 B).

CC1=C(/C=C/C(C)=C/C=C/C(C)=C/C(=O)O)C(C)(C)CCC1 [RA, trans-retinoic acid]
differentiation of cells (SH-SY5Y cells): induced differentiation of SH-SY5Y cells towards neuronal lineage

O=c1[nH]cc(F)c(=O)[nH]1 [5FU]
death in 3D (MCF7 spheroids [1]): more death in 3D as compared to other drugs

COc1cccc2c1C(=O)c1c(O)c3c(c(O)c1C2=O)C[C@@](O)(C(=O)CO)C[C@@H]3O[C@H]1C[C@H](N)[C@H](O)[C@H](C)O1 [DOX, doxorubicin]
change in cell viability (FACS, Annexin-PI) (MDA-MB-231 cells; DOX encapsulated in the hydrogels, 24 hrs): decrease in cell viability | cancer cell death (MDA-MB-231 cells; DOX released from DOX encapsulated hydrogels): ~70%

insulin
blood sugar level ([2]; insulin encapsulated in the hydrogels, subcutaneously injected): 100 to 120 mg/dL | time blood glucose level maintained after administration ([2]; only insulin control): ≤ 6 h | time serum insulin level maintained after administration ([2]; only insulin control): ≤ 6 h

CC(C)C[C@H](NC(=O)[C@@H](NC(=O)[C@@H](NC(=O)[C@H](C)NC(=O)OCC1c2ccccc2-c2ccccc21)C(C)C)C(C)C)C(=O)N[C@@H](CO)C(=O)O [FA3, AVVLS] (Fmoc-AVVLS-OH; N-terminus and C-terminus assumed)
viability at 24 h, 5000 µg/mL [3]: > 80%

CC[C@H](C)[C@H](NC(=O)[C@H](CCC(=O)O)NC(=O)[C@H](CCSC)NC(=O)[C@H](CC(C)C)NC(=O)[C@H](CCCCN)NC(=O)OCC1c2ccccc2-c2ccccc21)C(=O)O [FA1, KLMEI] (Fmoc-KLMEI-OH; N-terminus and C-terminus assumed)
viability at 24 h, 5000 µg/mL [3]: > 80%

CC(=O)O[C@H]1C(=O)[C@@]2(C)[C@H]([C@H](OC(=O)c3ccccc3)[C@]3(O)C[C@H](OC(=O)[C@H](O)[C@@H](NC(=O)c4ccccc4)c4ccccc4)C(C)=C1C3(C)C)[C@]1(OC(C)=O)CO[C@@H]1C[C@@H]2O [paclitaxel]
cells dead in 2D (MCF7 spheroids [4]; 4 μM, calcein AM / ethidium homodimer-1): 70% | resistance 3D versus 2D (MCF7 spheroids [4]; 2-10 μM, spheroids 5 days on gel 4): 3D are more resistant than 2D

CC[C@H](C)[C@H](NC(=O)[C@H](CC(=O)O)NC(=O)[C@H](CC(C)C)NC(=O)[C@H](CC(C)C)NC(=O)[C@H](CCCCN)NC(=O)OCC1c2ccccc2-c2ccccc21)C(=O)O [FA2, KLLDI] (Fmoc-KLLDI-OH; N-terminus and C-terminus assumed)
viability at 24 h, 5000 µg/mL [3]: > 80%
